Experimental findings from US20210230179A1, “THIENO[2,3-B]PYRIDINE DERIVATIVES AS EPAC INHIBITORS AND THEIR PHARMACEUTICAL USES” (INSTITUT NATIONAL DE LA SANTE ET DE LA RECHERCHE MEDICALE …, priority 2018, published 2021) are described below.

As usually defined, the IC50 is the concentration at which inhibition is half-maximal.

Bounds are passed on as bounds.

For the experiment, the target named is T1, Epac2 (Homo sapiens, UniProt Q8WZA2).
T1 sequence (Q8WZA2 1-867 isoform Q8WZA2-3): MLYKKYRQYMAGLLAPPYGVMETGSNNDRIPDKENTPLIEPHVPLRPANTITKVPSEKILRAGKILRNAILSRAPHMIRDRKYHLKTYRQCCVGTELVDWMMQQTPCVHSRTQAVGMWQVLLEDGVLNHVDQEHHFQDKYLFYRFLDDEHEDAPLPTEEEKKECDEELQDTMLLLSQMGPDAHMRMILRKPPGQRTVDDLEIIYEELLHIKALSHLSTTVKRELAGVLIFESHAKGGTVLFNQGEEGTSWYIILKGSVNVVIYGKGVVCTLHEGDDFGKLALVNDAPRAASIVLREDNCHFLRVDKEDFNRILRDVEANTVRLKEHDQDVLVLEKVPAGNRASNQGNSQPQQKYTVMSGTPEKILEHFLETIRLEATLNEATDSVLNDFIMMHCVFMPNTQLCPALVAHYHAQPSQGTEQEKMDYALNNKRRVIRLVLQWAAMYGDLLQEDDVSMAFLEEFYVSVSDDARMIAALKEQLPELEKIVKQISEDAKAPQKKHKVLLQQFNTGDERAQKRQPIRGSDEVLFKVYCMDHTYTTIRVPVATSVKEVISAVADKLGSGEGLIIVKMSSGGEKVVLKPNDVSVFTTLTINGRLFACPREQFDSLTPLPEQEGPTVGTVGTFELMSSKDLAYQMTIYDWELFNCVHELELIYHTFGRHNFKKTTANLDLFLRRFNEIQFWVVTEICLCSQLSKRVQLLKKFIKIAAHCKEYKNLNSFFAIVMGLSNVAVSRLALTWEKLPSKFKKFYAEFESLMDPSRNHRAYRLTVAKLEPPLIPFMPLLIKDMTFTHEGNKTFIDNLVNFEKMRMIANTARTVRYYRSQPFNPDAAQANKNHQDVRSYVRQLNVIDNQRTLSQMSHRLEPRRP
The experiment can be described thus: Epac GEF activity assay (b-GDP dissociation from recombinant Rap1), Epac2. Type of experiment: biochemical. An excerpt:
FIGS. 4-8. […] Variations of relative fluorescence units (RFU) were studied as a function of time and fitted to single exponentials.

As for `Nc1c(C(=O)Nc2ccc(F)cc2)sc2nc(-c3cccs3)cc(-c3ccccc3)c12` [AM-001, 3-amino-N-(4-fluorophenyl)-4-phenyl-6-(thiophen-2-yl)thieno[2,3-b]pyridine-2-carboxamide], under “30 μM Sp-8-CPT, 20 μM inhibitor”, the “effect on Epac2 GEF activity” value is given as “no inhibitory effect”. Besides, the half-inhibitory concentration (IC50) (Sp-8-CPT at its EC50 for the isoform) is over 1000 µM and the IC50 (saturating concentration of Sp-8-CPT) is over 1000 µM.
